Laboratory results reported in ChEMBL document CHEMBL1154267, “Imidazo[1,5-a][1,2,4]-triazolo[1,5-d][1,4]benzodiazepines as potent and highly selective GABAA alpha5 inverse agonists with potential for the treatment of cognitive dysfunction” (Bioorg Med Chem Lett, 2009).
Values after ≈ are worked out from the molar mass of the structure shown. Active and inactive are the calls of the source. No cut-off for these calls is given here.

Key:
[1] = Selectivity ratio of Ki for GABAA alpha-1-beta-3-gamma-2 receptor to Ki for GABAA alpha-5-beta-3-gamma-2 receptor
[2] = target: GABA-A receptor; alpha-5/beta-3/gamma-2 (Homo sapiens) (UniProt P18507+P28472+P31644); assay: Inverse agonist activity at GABAA alpha-5-beta-3-gamma-2 receptor assessed as modulation of GABA-induced chloride ion flux by electrophysiology assay relative to GABA; format: functional
[3] = target: T1, GABA-A receptor; alpha-5/beta-3/gamma-2 (Homo sapiens, UniProt P18507+P28472+P31644); assay: Displacement of [3H]flumazenil from GABAA alpha-5-beta-3-gamma-2 receptor; format: protein-complex assay
T1 sequence (P18507 whole entry): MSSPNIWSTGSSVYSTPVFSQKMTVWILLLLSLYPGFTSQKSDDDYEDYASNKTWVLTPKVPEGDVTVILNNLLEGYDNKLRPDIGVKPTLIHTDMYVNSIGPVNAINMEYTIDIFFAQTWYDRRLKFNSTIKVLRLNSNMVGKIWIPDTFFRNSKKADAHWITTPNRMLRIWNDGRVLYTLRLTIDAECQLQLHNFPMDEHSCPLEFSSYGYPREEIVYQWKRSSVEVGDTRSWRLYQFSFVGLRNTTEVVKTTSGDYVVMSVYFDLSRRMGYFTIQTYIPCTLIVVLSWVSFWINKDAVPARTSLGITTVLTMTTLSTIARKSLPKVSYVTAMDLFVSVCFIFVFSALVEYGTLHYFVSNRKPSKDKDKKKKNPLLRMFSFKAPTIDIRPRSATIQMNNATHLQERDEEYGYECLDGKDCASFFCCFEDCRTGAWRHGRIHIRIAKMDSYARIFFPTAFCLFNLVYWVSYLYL
T1 sequence (P28472 whole entry): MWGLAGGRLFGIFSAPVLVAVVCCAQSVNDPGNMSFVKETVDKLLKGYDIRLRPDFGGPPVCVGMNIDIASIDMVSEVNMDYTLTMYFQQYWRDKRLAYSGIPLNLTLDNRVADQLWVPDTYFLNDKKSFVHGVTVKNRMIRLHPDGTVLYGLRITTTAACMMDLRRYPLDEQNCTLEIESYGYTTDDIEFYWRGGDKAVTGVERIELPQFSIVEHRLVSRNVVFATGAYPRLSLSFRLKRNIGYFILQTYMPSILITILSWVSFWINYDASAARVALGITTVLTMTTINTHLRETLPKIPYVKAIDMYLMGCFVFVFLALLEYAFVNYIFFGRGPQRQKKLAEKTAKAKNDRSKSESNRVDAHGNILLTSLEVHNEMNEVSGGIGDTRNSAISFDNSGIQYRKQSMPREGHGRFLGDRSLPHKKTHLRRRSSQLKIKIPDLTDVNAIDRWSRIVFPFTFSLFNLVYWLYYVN
T1 sequence (P31644 whole entry): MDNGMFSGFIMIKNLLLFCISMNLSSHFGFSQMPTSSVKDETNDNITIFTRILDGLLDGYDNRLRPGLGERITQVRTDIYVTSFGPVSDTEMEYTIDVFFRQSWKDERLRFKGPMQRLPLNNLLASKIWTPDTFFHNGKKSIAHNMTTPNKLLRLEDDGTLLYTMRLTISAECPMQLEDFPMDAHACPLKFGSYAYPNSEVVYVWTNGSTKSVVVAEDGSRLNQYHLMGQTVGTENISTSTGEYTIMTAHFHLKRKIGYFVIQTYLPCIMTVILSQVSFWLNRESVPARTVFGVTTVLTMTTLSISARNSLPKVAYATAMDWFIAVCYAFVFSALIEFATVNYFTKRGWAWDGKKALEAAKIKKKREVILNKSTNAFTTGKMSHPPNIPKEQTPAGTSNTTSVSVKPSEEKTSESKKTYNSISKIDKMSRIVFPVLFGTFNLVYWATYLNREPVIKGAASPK

[4] = target: T2, GABA-A receptor; alpha-1/beta-3/gamma-2 (Homo sapiens, UniProt P14867+P18507+P28472); assay: Displacement of [3H]flumazenil from GABAA alpha-1-beta-3-gamma-2 receptor; format: protein-complex assay
T2 sequence (P14867 whole entry): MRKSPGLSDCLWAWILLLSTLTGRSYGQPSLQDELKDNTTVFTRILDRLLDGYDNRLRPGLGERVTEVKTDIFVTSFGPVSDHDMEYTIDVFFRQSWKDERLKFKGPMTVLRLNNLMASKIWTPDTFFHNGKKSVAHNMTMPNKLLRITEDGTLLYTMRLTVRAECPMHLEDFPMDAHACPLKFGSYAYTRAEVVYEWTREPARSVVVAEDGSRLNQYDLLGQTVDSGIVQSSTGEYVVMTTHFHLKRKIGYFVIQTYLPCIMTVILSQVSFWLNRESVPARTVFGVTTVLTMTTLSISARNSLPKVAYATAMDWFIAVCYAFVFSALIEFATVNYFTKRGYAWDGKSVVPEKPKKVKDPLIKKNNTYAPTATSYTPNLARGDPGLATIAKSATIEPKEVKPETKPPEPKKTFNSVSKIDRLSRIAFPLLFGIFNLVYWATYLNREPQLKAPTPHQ
T2 sequence (P18507 whole entry): T1 sequence (P18507 whole entry)
T2 sequence (P28472 whole entry): T1 sequence (P28472 whole entry)

[5] = Oral bioavailability in rat; format: ADME, organism-based; conditions: in vivo
[6] = Selectivity ratio of Ki for GABAA alpha-2-beta-3-gamma-2 receptor to Ki for GABAA alpha-5-beta-3-gamma-2 receptor
[7] = Solubility of the compound; format: physicochemical
[8] = Permeability by PAMPA; format: ADME; conditions: read-out: permeability
[9] = target: T3, GABA-A receptor; alpha-2/beta-3/gamma-2 (Homo sapiens, UniProt P18507+P28472+P47869); assay: Displacement of [3H]flumazenil from GABAA alpha-2-beta-3-gamma-2 receptor; format: protein-complex assay
T3 sequence (P18507 whole entry): T1 sequence (P18507 whole entry)
T3 sequence (P28472 whole entry): T1 sequence (P28472 whole entry)
T3 sequence (P47869 whole entry): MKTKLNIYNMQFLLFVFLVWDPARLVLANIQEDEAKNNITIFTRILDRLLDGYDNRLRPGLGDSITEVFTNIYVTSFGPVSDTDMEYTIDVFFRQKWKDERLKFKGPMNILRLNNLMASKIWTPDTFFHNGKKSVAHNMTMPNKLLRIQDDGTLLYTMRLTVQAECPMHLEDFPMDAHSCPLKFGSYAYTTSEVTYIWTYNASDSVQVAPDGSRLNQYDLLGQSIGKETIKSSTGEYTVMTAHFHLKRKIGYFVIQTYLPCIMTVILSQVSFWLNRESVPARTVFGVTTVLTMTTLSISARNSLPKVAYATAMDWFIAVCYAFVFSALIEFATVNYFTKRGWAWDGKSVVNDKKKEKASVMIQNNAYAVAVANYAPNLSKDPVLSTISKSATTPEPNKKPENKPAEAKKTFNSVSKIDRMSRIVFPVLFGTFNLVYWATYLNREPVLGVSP

[10] = Half life in rat; format: ADME, organism-based; conditions: in vivo
[11] = Ratio of drug level in brain to plasma in rat; format: ADME, organism-based; conditions: brain and plasma
[12] = Selectivity ratio of Ki for GABAA alpha-3-beta-3-gamma-2 receptor to Ki for GABAA alpha-5-beta-3-gamma-2 receptor
[13] = Volume of distribution at steady state in rat; format: ADME, organism-based; conditions: in vivo, read-out: Vdss
[14] = Lipophilicity, log D at pH 7.4; format: physicochemical; conditions: buffer
[15] = target: T4, GABA-A receptor; alpha-3/beta-3/gamma-2 (Homo sapiens, UniProt P18507+P28472+P34903); assay: Displacement of [3H]flumazenil from GABAA alpha-3-beta-3-gamma-2 receptor; format: protein-complex assay
T4 sequence (P18507 whole entry): T1 sequence (P18507 whole entry)
T4 sequence (P28472 whole entry): T1 sequence (P28472 whole entry)
T4 sequence (P34903 whole entry): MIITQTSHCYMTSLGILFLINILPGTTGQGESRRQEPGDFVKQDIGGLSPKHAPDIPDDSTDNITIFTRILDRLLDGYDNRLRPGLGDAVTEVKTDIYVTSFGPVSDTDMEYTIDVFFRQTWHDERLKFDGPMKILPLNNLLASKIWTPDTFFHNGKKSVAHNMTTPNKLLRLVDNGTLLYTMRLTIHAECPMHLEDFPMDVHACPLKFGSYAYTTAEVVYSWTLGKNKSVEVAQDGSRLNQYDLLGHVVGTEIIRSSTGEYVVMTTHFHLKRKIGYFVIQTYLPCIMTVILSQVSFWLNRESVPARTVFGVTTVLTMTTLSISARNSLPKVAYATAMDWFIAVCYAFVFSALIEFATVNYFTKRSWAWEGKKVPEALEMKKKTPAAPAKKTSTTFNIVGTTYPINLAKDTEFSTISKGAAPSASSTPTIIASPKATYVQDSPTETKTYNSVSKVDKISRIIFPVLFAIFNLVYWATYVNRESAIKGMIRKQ

[16] = Clearance in rat; format: ADME, organism-based; conditions: in vivo
[17] = system: Rattus norvegicus; assay: Behavioral effect in Lister hooded rat assessed as inhibition of scopolamine-induced impairment of working memory at 1 to 3 mg/kg, po after 30 mins by delayed match to position test; format: functional, organism-based
[18] = system: Rattus norvegicus; assay: Behavioral effect in Lister hooded rat assessed as reversal of Scopolamine-induced impairment of working memory at 1 to 3 mg/kg, ip administered 30 mins before Scopolamine challenge by delayed match to position test; format: functional, organism-based
[19] = system: Liver microsomes; assay: Clearance in human liver microsomes; format: ADME, Microsome
[20] = target: GABA-A receptor; alpha-1/beta-3/gamma-2 (Homo sapiens) (UniProt P14867+P18507+P28472); assay: Inverse agonist activity at GABAA alpha-1-beta-3-gamma-2 receptor assessed as modulation of GABA-induced chloride ion flux by electrophysiology assay relative to GABA; format: functional
[21] = target: GABA-A receptor; alpha-3/beta-3/gamma-2 (Homo sapiens) (UniProt P18507+P28472+P34903); assay: Inverse agonist activity at GABAA alpha-3-beta-3-gamma-2 receptor assessed as modulation of GABA-induced chloride ion flux by electrophysiology assay relative to GABA; format: functional
[22] = system: Rattus norvegicus; assay: Behavioral effect in Lister hooded rat assessed as reversal of Scopolamine-induced impairment of working memory at 1 mg/kg, ip administered 30 mins before Scopolamine challenge by delayed match to position test; format: functional, organism-based; parameters: dose 1 mg/kg
[23] = target: GABA-A receptor; alpha-2/beta-3/gamma-2 (Homo sapiens) (UniProt P18507+P28472+P47869); assay: Inverse agonist activity at GABAA alpha-2-beta-3-gamma-2 receptor assessed as modulation of GABA-induced chloride ion flux by electrophysiology assay relative to GABA; format: functional

| Structure (SMILES) | Ratio Ki [1] | Efficacy [2] | Ki [3] | Ki [4] | Ratio Ki [6] | Ki [9] | Ratio Ki [12] | Ki [15] | further results |
| --- | --- | --- | --- | --- | --- | --- | --- | --- | --- |
| Cc1cc(Cc2nc3n(n2)Cc2c(C)ncn2-c2ccc(O)cc2-3)on1 | 99 | -7% | 1.2 nM |  |  |  |  |  |  |
| Cc1cc(Cc2nc3n(n2)Cc2c(C)ncn2-c2ccc(Br)cc2-3)on1 | 314 | -27% | 0.6 nM | 188 nM | 174 | 105 nM | 122 | 73 nM | bioavailability [5]: 34%; solubility [7]: 7 µg/mL (≈ 17 µM); Papp [8]: 3.3 ×10⁻⁶ cm/s; half-life [10]: 1.4 h; Kp [11]: 0.2; Vd [13]: 4.6 L/kg; logD [14]: 2.6; clearance [16]: 39 mL/min/kg |
| Cc1noc(Cc2nc3n(n2)Cc2c(C)ncn2-c2ccc(Br)cc2-3)n1 |  | -18% | 0.9 nM | 469 nM |  | 317 nM |  | 277 nM |  |
| Cc1cc(Cc2nc3n(n2)Cc2c(C)ncn2-c2ccc(OC(F)(F)F)cc2-3)on1 | 68 | -20% | 11 nM |  | 83 |  | 111 |  |  |
| Cc1nc2n(n1)Cc1c(C)ncn1-c1ccc(Br)cc1-2 |  | -17% | 20 nM | 1420 nM |  | 3160 nM |  | 1620 nM |  |
| Cc1ncn2c1Cn1nc(C(C)(C)C)nc1-c1cc(Br)ccc1-2 |  |  | 146 nM | 3160 nM |  | 1070 nM |  | 1210 nM |  |
| Cc1cc(Cc2nc3n(n2)Cc2c(C)ncn2-c2ccccc2-3)on1 | 57 |  | 1.6 nM |  | 20 |  | 16 |  |  |
| Cc1ncn2c1Cn1nc(CN3CCCC3=O)nc1-c1cc(Br)ccc1-2 |  | -34% | 7 nM | 624 nM |  | 669 nM |  | 515 nM | bioavailability [5]: 32%; solubility [7]: 550 µg/mL (≈ 1330 µM); Activity [17]: inactive; Papp [8]: 1.5 ×10⁻⁶ cm/s; Activity [18]: Dose-dependent effect; half-life [10]: 0.8 h; Kp [11]: 0.09; Vd [13]: 1.3 L/kg; logD [14]: 1.5; CL [19]: 3000 µL/min/mg; clearance [16]: 30 mL/min/kg |
| Cc1ncn2c1Cn1nc(CC3CC3)nc1-c1cc(Br)ccc1-2 | 2 | -12% | 5 nM | 538 nM | 2 | 407 nM | 2 | 407 nM |  |
| Cc1ccc2c(c1)-c1nc(Cc3cc(C)no3)nn1Cc1c(C)ncn1-2 | 620 | -16% | 0.8 nM |  | 332 |  | 360 |  |  |
| Cc1cc(-c2nnc3c4ccccc4c(OCc4ccccn4)nn23)no1 |  | -41% | 1.5 nM | 1.5 nM |  |  |  | 1.5 nM | Efficacy [20]: -9%; Efficacy [21]: 10%; Activity [22]: Active; Efficacy [23]: 11% |
| Cc1ncn2c1Cn1ncnc1-c1cc(Br)ccc1-2 |  | -42% | 6 nM | 136 nM |  | 186 nM |  | 132 nM | Efficacy [20]: -16% |
| COc1ccc2c(c1)-c1nc(Cc3cc(C)no3)nn1Cc1c(C)ncn1-2 | 307 | -13% | 2.2 nM |  | 193 |  | 222 |  |  |
| COCc1nc2n(n1)Cc1c(C)ncn1-c1ccc(Br)cc1-2 |  | -3% | 13 nM | 619 nM |  | 693 nM |  | 592 nM |  |
